# From patent US6395499B1, “Methods of identifying modulators of a DP prostaglandin receptor” (Merck Frosst Canada & Co., priority 1995, dated 2002)
# pEC50, pKi: −log10 of the molar value.
# Experiments:
# [1] = biological target: T1, human prostaglandin D2 (DP) receptor (Homo sapiens, UniProt Q13258); assay: [3H]PGD2 specific binding assay, membranes of pcDNA3-hDP transfected COS-M6 cells; details: 0.87 nM [3H]PGD2, 60 min at 30° C., pH 7.0, read-out: Ki, competition for [3H]PGD2 specific binding
# T1 construct: The full length coding cDNA was constructed as follows; expressed in transfected cells
# T1 sequence (Q13258 1-359): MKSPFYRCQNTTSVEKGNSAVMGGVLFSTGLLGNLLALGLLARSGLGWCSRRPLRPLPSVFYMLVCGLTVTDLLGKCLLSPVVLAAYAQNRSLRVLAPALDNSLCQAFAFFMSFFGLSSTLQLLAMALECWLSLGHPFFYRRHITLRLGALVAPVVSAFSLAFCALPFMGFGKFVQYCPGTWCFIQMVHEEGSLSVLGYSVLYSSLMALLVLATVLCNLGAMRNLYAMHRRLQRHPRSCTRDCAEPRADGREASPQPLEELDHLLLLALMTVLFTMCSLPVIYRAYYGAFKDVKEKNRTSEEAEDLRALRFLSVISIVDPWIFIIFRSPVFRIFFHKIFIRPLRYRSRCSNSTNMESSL
# Experimental: FIG. 3—Competition for [^3H]PGD2 specific binding to pcDNA3-hDP transfected COS-M6 membranes. [^3H]PGD2 binding assays were performed as described in Example 6. The percentage maximum [^3H]PGD2 specific binding at each competing ligand concentration was determined for PGD2 (▪), the DP receptor agonist BW245C (●), the DP antagonist BW868C (♦), PGE2 (▴), PGF2a (▾), iloprost (□) and the TP-receptor agonist U46619 (∘), over a concentration range up to 100 μM.
# The recently cloned human prostaglandin D2 (DP) receptor was subcloned into the pcDNA3 plasmid (Invitrogen) and transfected into COS-M6 cells by the cationic liposome-mediated transfer of DNA using LiofectAMINE reagent (GIBCO/BRL). The cells were maintained in culture for 72 h, then harvested and membranes prepared by differential centrifugation (1000×g for 10 min, then 100,000×g for 30 min) following lysis of the cells by nitrogen cavitation. [^3H]PGD2 specific binding assays were performed in 10 mM BES adjusted to pH 7.0 with KOH and containing 1.0 mM EDTA, 10 mM MnCl2, 0.87 nM [^3H]PGD2 and […] of protein from the 100,000×g membrane fraction. Incubations were conducted for 60 min at 30° C. prior to separation of the bound and free radioligand by rapid filtration through Whatman GF/B filters presoaked at 4° C. in washing buffer (10 mM BES/KOH (pH 7.0) containing 0.01% (w/v)bovine serum albumin). The filters were washed with approximately 16 ml of washing buffer and the residual [^3H]PGD2 bound to the filter was quantified by liquid scintillation counting. Specific binding was defined as the difference between total binding and non-specific binding, determined in the presence of 1 mM PGD2.
# The cloned human DP receptor was transfected into COS-M6 cells and [^3H]PGD2 binding assays were performed with membranes prepared from the transfected cells. […] The rank order of affinity for prostaglandins and related synthetic analogs at the human DP receptor was therefore: BW245C>PGD2>BW868C>PGE2>PGF2a=iloprost>U46619. This rank order of potency has been predicted for the DP receptor from previous pharmacological studies.
# [2] = biological target: T1, human prostaglandin D2 (DP) receptor; assay: cAMP assay in HEK293 (EBNA) cells stably expressing the DP receptor; type: cell-based; details: for pEC50: 15 min at 37° C., 100 μM RO-20-1724, read-out: EC50, increase in intracellular cAMP production; for cAMP production: concentrations up to 1 μM
# Experimental: FIG. 5—Increases in intracellular cAMP production in HEK293 (EBNA) cells stably expressing the DP receptor is shown. cAMP assays were performed as described in Example 7. The pmoles of cAMP produced per 1.5×10^5 cells at each ligand concentration was determined for PGD2 (n), the DP receptor agonist BW245C (●), the DP antagonist BW868C (♦), PGE2 (▴), PGE1 ( ? ), PGF2α (▾), iloprost (□) and the TP-receptor agonist U46619 (∘), over a concentration range up to 1 μM.
# The recently cloned human prostaglandin D2 (DP) receptor was subcloned into the pCEP4 plasmid (Invitrogen) and transfected into HEK293 (EBNA) cells by the cationic liposome-mediated transfer of DNA using LipofectAMINE™ (Gibco/BRL) reagent. Cells were maintained in culture for 48 h post transfection and then trypsinized, diluted and replated in the presence 200 μg/ml hygromycin B (Calbiochem) to select for transfected cells. Cells were maintained under selection for 3 weeks to ensure a homogeneous population of cells expressing the DP receptor.
# (§1) Increases in intracellular cAMP production following agonist challenge was performed in HEK293 (EBNA) cells expressing the DP receptor and control HEK293 (EBNA) cells. Cells were harvested at approximately 80% confluence by incubation in enzyme-free cell dissociation buffer (Gibco/BRL), washed once with HEPES-buffered Krebs-Ringer solution {1.25 mM MgSO4, 1.5 mM CaCl2, 5 mM KCl, 124 mM NaCl, 8 mM glucose, 1.25 mM KH2PO4, and 25 mM HEPES/KOH (pH 7.4)} and resuspended in the same buffer. The cAMP assay was performed in a final volume of 0.2 ml of HEPES-buffer Krebs-Ringer solution and 100 μM of the phosphodiesterase type IV inhibitor RO-20-1724 (Biomol), to prevent hydrolysis of cAMP. RO-20-1724 and the compounds under evaluation were added to the incubation mixture in dimethyl sulfoxide or ethanol to a final vehicle concentration 0.35% (v/v) which was kept constant in all samples. The reaction was initiated by the addition of 1.5×10^5 cells per incubation. Samples were incubated at 37° C. for 15 min and the reaction was then terminated by immersing the samples in boiling water for 3 minutes. Cell viability was always ≧96% as determined by trypan blue exclusion. Measurement of cAMP was performed by radioimmunoassay using [^125I]cAMP (Amersham International).
# [3] = test system: control HEK293 (EBNA) cells; assay: cAMP assay in control HEK293 (EBNA) cells; type: cell-based; details: 1 μM; for cAMP production in control cells: control HEK293 (EBNA) cells
# Experimental: as §1
# DP receptor = biological target: T2, DP receptor (Homo sapiens, UniProt Q13258); assay: Intracellular calcium [Ca2+]i assay in DP-HEK293 (EBNA) stable cell line; type: cell-based; parameters: [Ca2+]i upon ionophore challenge at end of experiment (viability check): dose or concentration left out as unconfirmed; details: for calcium mobilization [Ca2+]i: DP-expressing HEK293 (EBNA) cells
# T2 construct: The full length coding cDNA was constructed as follows; expressed in transfected cells
# T2 sequence (Q13258 1-359): T1 sequence (Q13258 1-359)
# Experimental: FIG. 4—Increases in intracellular calcium [Ca^2+]i in HEK293 (EBNA) cells stably expressing the DP receptor is shown. DP-HEK293 (EBNA) cells were harvested and prepared as described in Example 8. […] At the end of each experiment cells were challenged with 1 μM ionomycin to release [Ca^2+]i followed by quenching of the [Ca^2+]i release with 1 mM EDTA.
# (§2) Intracellular calcium [Ca^2+]i measurements were performed with both the DP-HEK293 (EBNA) stable cell line and control HEK293 (EBNA) cells. The cells were harvested with enzyme-free cell dissociation buffer, recovered by centrifugation at 300×g for 5 min at 22° C. and resuspended at 2×10^6 cells/ml in DMEM growth medium without G418 or hygromycin B. The cells were incubated at 37° C., 6% CO2 for 45 min with 2 μM fura-2 AM. Unincorporated fura-2 AM was removed by three washes in HBSS (1.3 mM CaCl2, 5 mM KCl, 0.3 mM KH2PO4, 0.9 mM MgCl2, 138 mM NaCl, 4 mM NaHCO3, 0.3 mM Na2HPO4, 5.6 mM D-glucose) by centrifugation at 300×g, for 5 min at 22° C. The cells were then resuspended at a final concentration of 10^6 cells/ml in HBSS. [Ca^2+]i was measured following agonist challenge of 2*10^6 fura-2 AM loaded cells using a Perkin-Elmer LS-5 spectrophotometer essentially as described (Chan et al., 1994, Journal of Pharmacology and Experimental Therapeutics 269(3): 891-896).
# [4] = test system: control HEK293 (EBNA) cells; assay: Intracellular calcium [Ca2+]i assay in control HEK293 (EBNA) cells; type: cell-based; details: 1000 nM
# Experimental: as §2
smiles,measurement,setting,value
CCCCC[C@H](O)/C=C/[C@@H]1[C@@H](C/C=C\CCCC(=O)O)[C@@H](O)C[C@H]1O [PGF2a],pKi,[1],6.29
CC#CCC(C)[C@H](O)/C=C/[C@@H]1[C@H]2C/C(=C/CCCC(=O)O)C[C@H]2C[C@H]1O (stereo partly drawn) [iloprost],pKi,[1],6.20
same,pEC50,[2],< 6.30
O=C(O)CCCCCCC1C(=O)N(Cc2ccccc2)C(=O)N1NCC(O)C1CCCCC1 (stereo not drawn) [BW868C],pKi,[1],8.77
same,cAMP production,[2],20 pmol cAMP/1.5×10^5 cells
CCCCC[C@H](O)/C=C/[C@H]1[C@H](O)CC(=O)[C@@H]1CCCCCCC(=O)O [PGE1],fold less cAMP in control cells than in similarly challenged DP-expressing cells,[3],14 fold
same,cAMP production in control cells,[3],6 pmoles/1.5×10^5 cells
O=C(O)CCCCCCC1C(=O)NC(=O)N1CCC(O)C1CCCCC1 (stereo not drawn) [BW245C],pKi,[1],9.05
same,pEC50,[2],9.22
CCCCC[C@H](O)/C=C/[C@H]1[C@H](O)CC(=O)[C@@H]1C/C=C\CCCC(=O)O [PGE2],pKi,[1],7.00
same,fold less cAMP in control cells than in similarly challenged DP-expressing cells,[3],14 fold
same,cAMP production in control cells,[3],6 pmoles/1.5×10^5 cells
C[C@H](CCC(=O)O)C[C@H](C)C[C@H](C)C(=O)/C=C(\O)[C@H](C)C[C@H](C)C/C=C/[C@@H](C)[C@@H](O)[C@@H](C)[C@@H](O)C[C@@H]1CC[C@@](C)([C@H]2CC[C@@](C)([C@@H](C)O)O2)O1 [ionomycin],[Ca2+]i upon ionophore challenge at end of experiment (viability check),DP receptor,large increase in [Ca^2+]i
"CCCCC[C@H](O)/C=C/[C@H]1C(=O)C[C@H](O)[C@@H]1C/C=C\CCCC(=O)O [PGD2, Prostaglandin D2]",pKi,[1],8.96
same,fold less potent than BW245C (cAMP EC50),[2],10 fold
same,pEC50,[2],8.19
same,cAMP production,[2],> 140 pmol cAMP/1.5×10^5 cells
same,calcium mobilization [Ca2+]i,DP receptor; 10 to 1000 nM,increased calcium mobilization
same,calcium mobilization [Ca2+]i,"DP receptor; concentrations below 10 nM, versus vehicle",failed to induce a response
same,change in [Ca2+]i in control cells,[4],did not provoke any change
CCCCC[C@H](O)/C=C/[C@@H]1[C@@H](C/C=C\CCCC(=O)O)[C@H]2CO[C@@H]1C2 [U46619],pKi,[1],~5.73
